Measurements taken from the Kinase Knowledgebase extract (Sharma et al. 2016).
pIC50: −log10 of the molar value.

Key:
MAPK14 (human) [1] = biological target: MAPK14 (human) (UniProt Q16539); experiment: Inhibition of p38 Kinase Activity
MAPK14 (human) [2] = biological target: MAPK14 (human) (UniProt Q16539); experiment: Inhibition of IL-1 Production in LPS Stimulated PBMC
MAPK14 (human) [3] = biological target: MAPK14 (human) (UniProt Q16539); experiment: Inhibition of TNF-alpha Production in LPS Stimulated PBMC
MAPK14 (human) [4] = biological target: MAPK14 (human) (UniProt Q16539); experiment: Inhibition of TNF-alpha Production in LPS Stimulated Whole Blood Cells
MAPK14 (human) [5] = biological target: MAPK14 (human) (UniProt Q16539); experiment: Inhibition of IL-1 Production in LPS Whole Blood Cells
MAPK14 (human) [6] = biological target: MAPK14 (human) (UniProt Q16539); experiment: Inhibition of IL-6 Production in Whole Blood Cells

Chain of MAPK14 (human) (Q16539 whole entry, looked up): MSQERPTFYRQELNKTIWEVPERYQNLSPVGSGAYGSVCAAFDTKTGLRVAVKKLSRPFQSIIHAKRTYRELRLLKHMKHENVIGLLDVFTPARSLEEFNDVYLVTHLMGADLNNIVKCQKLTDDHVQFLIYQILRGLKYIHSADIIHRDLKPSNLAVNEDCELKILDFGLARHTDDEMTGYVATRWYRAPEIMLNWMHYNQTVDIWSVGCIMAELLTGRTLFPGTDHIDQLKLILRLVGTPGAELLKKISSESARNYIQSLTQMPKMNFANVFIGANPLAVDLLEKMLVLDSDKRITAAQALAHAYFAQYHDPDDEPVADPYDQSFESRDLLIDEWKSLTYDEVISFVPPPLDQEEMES

pIC50 (MAPK14 (human) [1])	pIC50 (MAPK14 (human) [2])	pIC50 (MAPK14 (human) [3])	pIC50 (MAPK14 (human) [4])	pIC50 (MAPK14 (human) [5])	pIC50 (MAPK14 (human) [6])	Structure (SMILES)
8.70	7.70	7.30	7.26	6.93	6.74	Cc1cc(F)ccc1-c1nc(N(C(N)=O)c2c(Cl)cccc2Cl)ccc1CO
7.25	7.68	6.85	7.19	6.38	6.60	Cc1ccccc1-c1nc(N(C(N)=O)c2c(Cl)cccc2Cl)ccc1CO
7.57	7.57	8.00	7.05	7.24	7.12	Cc1cc(F)ccc1-c1nc(N(C(N)=O)c2c(F)cccc2F)ccc1CO
